Laboratory results taken from patent US10501473B2, “Fused heterocyclic ring compounds and method of treating retinal disease using same” (THE INDUSTRY & ACADEMIC COOPERATION IN CHUNGNAM NATIONAL …, priority 2014, dated 2019).

Key:
[1] = biological target: T1, RIPK1 (receptor-interacting serine/threonine-protein kinase 1) (Homo sapiens (Human), UniProt Q13546); assay: RIPK1 inhibitory activity, autophosphorylation of immuno-precipitated RIPK1 with [32P]γ-ATP; assay type: biochemical; details: for activity at 100 µM: compound 100 μM, remaining RIPK1 phosphorylation; for inhibition at 100 µM: Table 2, 100 μM
T1 sequence (Q13546 whole entry, species assumed): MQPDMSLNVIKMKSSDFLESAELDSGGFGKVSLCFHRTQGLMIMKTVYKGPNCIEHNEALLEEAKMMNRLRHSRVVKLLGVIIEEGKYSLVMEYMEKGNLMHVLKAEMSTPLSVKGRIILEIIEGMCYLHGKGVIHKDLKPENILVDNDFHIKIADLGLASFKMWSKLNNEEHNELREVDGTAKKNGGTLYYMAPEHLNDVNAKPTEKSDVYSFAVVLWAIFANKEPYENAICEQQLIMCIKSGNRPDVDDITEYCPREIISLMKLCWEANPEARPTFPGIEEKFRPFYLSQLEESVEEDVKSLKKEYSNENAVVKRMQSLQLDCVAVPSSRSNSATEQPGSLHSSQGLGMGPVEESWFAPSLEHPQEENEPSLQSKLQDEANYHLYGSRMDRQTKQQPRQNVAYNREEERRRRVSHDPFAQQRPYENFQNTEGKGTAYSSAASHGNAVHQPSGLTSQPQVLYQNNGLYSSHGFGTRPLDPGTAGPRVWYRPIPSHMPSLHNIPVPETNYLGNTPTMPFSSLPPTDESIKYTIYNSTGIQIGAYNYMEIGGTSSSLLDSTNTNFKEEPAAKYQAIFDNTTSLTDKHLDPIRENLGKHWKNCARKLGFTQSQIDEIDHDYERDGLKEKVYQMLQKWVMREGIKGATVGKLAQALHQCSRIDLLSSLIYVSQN
Description: The following experiment was performed to evaluate RIPK1 (receptor-interacting serine/threonine-protein kinase 1) inhibitory activity of the compounds of examples of the invention.
(§1) RIPK1 enzyme immuno-precipitated in HEK293 (Human Embryonic Kidney 293) cell lysate was used as kinase. The experiment was performed according to the method described in Cell. 12; 137(6):1112-23(2009). RIPK1 protein was over-expressed in HEK293 cell line, to which lysis buffer (50 mM Tris-Cl [pH 8.0], 150 mM NaCl, 1 mM EDTA, 1% NP-40, 0.4 mM phenylmethylsulfonyl fluoride (PMSF)) was added for cell lysis. Centrifugation was performed at 13,000 rpm for 10 minutes to separate the supernatant. RIPK1 monoclonal antibody (610459, BD Bioscience) and A/G agarose beads (sc-2003, Santa Cruz Biotechnology) were added thereto, followed by immuno-precipitation in a 4° C. rotator for 12 hours.
The immune complex was washed with lysis buffer twice and then washed with kinase assay buffer (20 mM HEPES [pH7.6], 2 mM DTT, 1 mM NaF, 1 mM Na3Vo4, 20 mM β-glycerophosphate, 20 mM PNPP, 20 mM MgCl2, 20 mM MnCl2, 1 mM Benzamidie, and 1 mM EDTA) lastly. Kinase assay buffer and the compound were added to the RIPK1 immuno-precipitate, followed by reaction in a 24° C. constant-temperature water bath for 15 minutes. Additional reaction was induced for 30 minutes at 30° C. after 100 μM of ATP and 10 μCi[^32P] γ-ATP were added thereto. The reaction mixture was washed with kinase assay buffer once, to which protein loading buffer was added, followed by heating at 100° C. for 3 minutes. The reaction mixture was then loaded on 8% SDS-PAGE gel. Radioactive image of the phosphorylated RIPK1 was detected with FLA-7000 (GE healthcare). The image Quant TL program was used for the quantification.

[2] = biological target: T1, RIPK1 (receptor-interacting serine/threonine-protein kinase 1); assay: IC50 to RIPK1, immuno-precipitated enzyme with [32P]γ-ATP; assay type: biochemical; details: 10-0.05 μM, 100 μM ATP
Description: RIPK1 enzyme immuno-precipitated in HEK293 (Human Embryonic Kidney 293) cell lysate was used as a kinase. The experiment was performed according to the method described in Cell. 12; 137(6):1112-23(2009).
as §1, with “RIPK1” for “RIPK1 enzyme immuno-precipitated in HEK293 (Human Embryonic Kidney 293) cell lysate was used as kinase. The experiment was performed according to the method described in Cell. 12; 137(6):1112-23(2009). RIPK1”
The compounds of examples of the invention were diluted at the different concentrations of 10 μM˜0.05 μM (10, 5, 1, 0.5, 0.1, 0.05 uM) and mixed with the immuno-precipitated RIPK1 enzyme, followed by reaction in a 24° C. constant-temperature water bath for 15 minutes. Additional reaction was induced for 30 minutes at 30° C. after 100 μM of ATP and 10 μCi[^32P] γ-ATP were added thereto. The reaction mixture was washed with buffer once, to which protein loading buffer was added, followed by heating at 100° C. for 3 minutes. The reaction mixture was then loaded on 8% SDS-PAGE gel. Radioactive image of the phosphorylated RIPK1 was detected with FLA-7000 (GE healthcare). The image Quant TL program was used for the quantification. Based on the results, IC50 of the compound was calculated by using sigmaplot 10.0 program.

[3] = tested on: RGC-5 (rat ganglion cell); assay: Retinal nerve protection under oxygen-glucose deprivation (OGD), LDH assay; assay type: cell-based; details: RGC-5, OGD 15 hours, compound 20 μM, DMSO control = 100%
Description: The following experiment was performed to evaluate the protective effect of the compounds of examples of the invention on the retinal nerve under oxygen-glucose deprivation condition.
The retinal ganglion cell line RGC-5 (rat ganglion cell) was cultured in DMEM (Dulbecco's modified Eagle's medium) supplemented with 10% FBS (fetal bovine serum) and 1% penicillin/streptomycin. The cells were distributed in a 96-well plate at the density of 8×10^3 cells/well, followed by culture in a 37° C., CO2 incubator for 12 hours. The cells were washed with PBS once and the medium was replaced with glucose free DMEM. The cells were treated with either DMSO (0.1%) alone (control) or with the compounds of examples (20 μM) shown in Table 3, followed by culture in an anaerobic incubator (10% H2, 5% CO2, 85% N2, 37° C., chamber (ThermoForma, USA)) for 15 hours to induce cell death.
The level of cell death was measured by LDH (lactate dehydrogenase, Roche) assay. The LDH assay is a method for measuring the activity of LDH released from the damaged cells into the culture medium. NAD^+ was reduced to NADH and H^+ by LDH, and the bond of tetrazolium salt INT ring was cleaved by diaphorase to form formazan. Absorbance of the formazan was measured at 490 nm by using Victor 3 (PerkinElmer). The absorbance reflects the amount of dead cells.
The level of the control LDH under oxygen-glucose deprivation condition was regarded as 100%, and the level of LDH in the cell group cultured in normal medium (10% FBS, DMEM) for the same time was regarded as 0%. Based on that, the levels of LDH of the cell groups treated with the compounds of the invention under oxygen-glucose deprivation condition were converted into the relative ratio of cell death. The compounds of examples of the invention were treated to wells, each compound for three wells, and then each experiment was performed in triplicate.

[4] = tested on: RGC-5 (rat ganglion cell-5); assay: Retinal neuron protection under necroptosis inducing (TCZ; TNFα+cycloheximide+zVAD) condition, LDH assay; assay type: cell-based; details: RGC-5, TCZ 15 hours, compound 20 μM, DMSO control = 100%
Description: The following experiment was performed to evaluate the retinal neuron protection effect of the compounds of the invention under necroptosis inducing condition.
The retinal ganglion cell line RGC-5 (rat ganglion cell-5) was cultured in DMEM (Dulbecco's modified Eagle's medium) supplemented with 10% FBS (fetal bovine serum) and 1% penicillin/streptomycin. The cells were distributed in a 96-well plate at the density of 8×10^3 cells/well, followed by culture in a 37° C., CO2 incubator for 12 hours. The medium supplemented with TNFα (10 ng/ml), cycloheximide (10 μg/ml), and zVAD (10 μM) (TCZ) was treated with DMSO (0.1%) alone (control) or with the compounds of the invention (20 μM), followed by additional culture in a 37° C., CO2 incubator for 15 hours to induce cell death.
The level of cell death was measured by LDH (lactate dehydrogenase, Roche) assay. The level of the control LDH under TCZ condition was regarded as 100%, and the level of LDH in the cell group cultured in normal medium (10% FBS, DMEM) for the same time was used for the measurement of the relative rate of cell death. The compounds of examples of the invention were treated to wells, each compound for three wells, and then each experiment was performed in triplicate.

| activity at 100 µM [1] | IC50 [2] | inhibition at 100 µM [1] | Structure (SMILES) | Death of retinal nerve cell (%) [3] | Death of retinal nerve cell (%) [4] |
| --- | --- | --- | --- | --- | --- |
| 1.5 ± 0.7% | 61.2 nM | – | O=C(c1cc2c(-c3ccsc3)cccc2s1)N1CCOCC1 [Example 76, morpholino(4-(thiophene-3-yl)benzo[b]thiophene-2-yl)methanone] | – | – |
| 3.5 ± 3.5% | 73.4 nM | – | O=C(c1cc2c(-c3ccoc3)cccc2s1)N1CCOCC1 [Example 75, (4-(furan-3-yl)benzo[b]thiophene-2-yl)(morpholino)methanone] | 41.7 ± 7.0% | – |
| 4 ± 2.8% | 17.7 nM | – | O=C(c1cc2c(-c3cccc(F)c3)cccc2s1)N1CCOCC1 [Example 36, (4-(3-fluorophenyl)benzo[b]thiophene-2-yl)(morpholino)methanone] | 58.0 ± 3.8% | – |
| 2.5 ± 0.7% | 217 nM | – | O=C(c1cc2c(-c3ccc(F)cc3)cccc2s1)N1CCSCC1 [Example 51, (4-(4-fluorophenyl)benzo[b]thiophene-2-yl)(thiomorpholino)methanone] | 44.7 ± 6.3% | – |
| 3 ± 1.4% | 1120 nM | – | O=C(c1cc2c(-c3ccc(F)cc3)ccnc2s1)N1CCOCC1 [Example 4, (4-(4-fluorophenyl)thieno[2,3-b]pyridine-2-yl)(morpholino)methanone] | 57.8 ± 8.9% | – |
| 81 ± 17% | – | – | Cc1ccc2[nH]c(C(=O)N3CCOCC3)cc2c1 [Example 21, (5-methyl-1H-indole-2-yl)(morpholino)methanone] | 64.7 ± 7.1% | 89.9 ± 19.4% |
| 62 ± 12% | – | – | Cl.O=C(c1cc2c(-c3ccc(F)cc3)cccc2s1)N1CCNCC1 [Example 38, (4-(4-fluorophenyl)benzo[b]thiophene-2-yl)(piperazine-1-yl)methanone hydrochloride] | 59.9 ± 0.2% | 72.4 ± 7.5% |
| 82.5 ± 24.7% | – | – | O=C(c1cc2cccc(Br)c2s1)N1CCOCC1 [Example 29, (7-bromobenzo[b]thiophene-2-yl)(morpholino)methanone] | 51.4 ± 10.9% | 78.4 ± 6.5% |
| 43% | – | ≥ 50% | Cn1c(C(=O)N2CCOCC2)cc2ccccc21 [Example 25, (1-methyl-1H-indole-2-yl)(morpholino)methanone] | 37.0 ± 1.2% | 64.8 ± 11.2% |
| 73 ± 38.2% | – | – | Nc1ccc2sc(C(=O)N3CCOCC3)cc2c1 [Example 28, (5-aminobenzo[b]thiophene-2-yl)(morpholino)methanone] | 60.0 ± 8.2% | 84.3 ± 1.7% |
| 43.5 ± 10.6% | – | ≥ 50% | COc1ccc2[nH]c(C(=O)N3CCOCC3)cc2c1 [Example 22, (5-methoxy-1H-indole-2-yl)(morpholino)methanone] | 78.6 ± 13.8% | 69.5 ± 7.4% |
| 88 ± 24.7% | – | – | O=C(c1cc2cc(Br)ccc2o1)N1CCOCC1 [Example 16, (5-bromobenzofuran-2-yl)(morpholino)methanone] | 19.3 ± 1.4% | 59.4 ± 11.3% |
| 81 ± 26.9% | – | – | COc1ccc2cc(C(=O)N3CCOCC3)sc2c1 [Example 19, (6-methoxybenzo[b]thiophene-2-yl)(morpholino)methanone] | 70.9 ± 9.7% | 71.6 ± 9.1% |
| 76.5 ± 12% | – | – | Cc1ccc2cc(C(=O)N3CCOCC3)sc2c1C [Example 18, (6,7-dimethylbenzo[b]thiophene-2-yl)(morpholino)methanone] | 37.0 ± 1.7% | 74.6 ± 8.2% |
| 60% | – | – | O=C(c1cc2cc(Cl)ccc2[nH]1)N1CCOCC1 [Example 12, (5-chloro-1H-indole-2-yl)(morpholino)methanone] | 35.7 ± 0.1% | 50.5 ± 7.4% |
| 62 ± 6.2% | – | – | O=C(c1nc2cc(Br)ccc2[nH]1)N1CCOCC1 [Example 14, (5-bromo-1H-benzo[d]imidazole-2-yl)(morpholino)methanone] | 82.1 ± 11.2% | 81.1 ± 15.2% |
| 20 ± 14.1% | – | – | O=C(c1cc2c(-c3ccc(F)cc3)cccc2s1)N1CCCCC1 [Example 47, (4-(4-fluorophenyl)benzo[b]thiophene-2-yl) (piperidine-1-yl)methanone] | 59.1 ± 1.6% | 89.1 ± 1.2% |
| 83.4 ± 16.1% | – | – | Cc1ccc2[nH]c(C(=O)N3CCOCC3)nc2c1 [Example 13, (5-methyl-1H-benzo[d]imidazole-2-yl)(morpholino)methanone] | 69.6 ± 2.0% | 71.2 ± 7.0% |
| 85.1 ± 24.7% | – | – | O=C(c1cc2c(-c3ccc(F)cc3)cnc(Cl)c2s1)N1CCOCC1 [Example 5, (7-chloro-4-(4-fluorophenyl)thieno[2,3-c]pyridine-2-yl)(morpholino)methanone] | 62.1 ± 3.7% | 57.6 ± 19.2% |
